According to the supplement of paper PMC10307832:

Legend:
Assay in all cases: relative viability (nuclei count vs DMSO), 5 days (fraction); higher = more cells survive
Linifanib + Pictilisib = compound: Cc1ccc(F)c(NC(=O)Nc2ccc(-c3cccc4[nH]nc(N)c34)cc2)c1 [Linifanib] + CS(=O)(=O)N1CCN(Cc2cc3nc(-c4cccc5[nH]ncc45)nc(N4CCOCC4)c3s2)CC1 [Pictilisib] (partner 1 µM)
Procedure, shortened: (§1)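 Medians of duplicate plates are given as relative viability. That measure is the nuclei count in treated wells divided by the count in vehicle wells. Counts were taken on 4× images of lung cancer cell lines in 1536-well plates, 5 days after pin-tool dosing the day after seeding with one drug alone or a fixed anchor-drug dose plus five library-drug doses (not always all listed) in √10 steps.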

Linifanib + Alpelisib = compound: Cc1ccc(F)c(NC(=O)Nc2ccc(-c3cccc4[nH]nc(N)c34)cc2)c1 [Linifanib] + Cc1nc(NC(=O)N2CCC[C@H]2C(N)=O)sc1-c1ccnc(C(C)(C)C(F)(F)F)c1 [Alpelisib] (partner 2 µM)
Procedure, shortened: as §1

Linifanib + Phenformin = compound: Cc1ccc(F)c(NC(=O)Nc2ccc(-c3cccc4[nH]nc(N)c34)cc2)c1 [Linifanib] + N=C(N)NC(=N)NCCc1ccccc1 [Phenformin] (partner 250 µM)
Procedure, shortened: as §1

Linifanib + Lapatinib = compound: Cc1ccc(F)c(NC(=O)Nc2ccc(-c3cccc4[nH]nc(N)c34)cc2)c1 [Linifanib] + CS(=O)(=O)CCNCc1ccc(-c2ccc3ncnc(Nc4ccc(OCc5cccc(F)c5)c(Cl)c4)c3c2)o1 [Lapatinib] (partner 2 µM)
Procedure, shortened: as §1

Linifanib + Palbociclib = compound: Cc1ccc(F)c(NC(=O)Nc2ccc(-c3cccc4[nH]nc(N)c34)cc2)c1 [Linifanib] + CC(=O)c1c(C)c2cnc(Nc3ccc(N4CCNCC4)cn3)nc2n(C2CCCC2)c1=O [Palbociclib] (partner 0.5 µM)
Procedure, shortened: as §1

Linifanib + Vorinostat = compound: Cc1ccc(F)c(NC(=O)Nc2ccc(-c3cccc4[nH]nc(N)c34)cc2)c1 [Linifanib] + O=C(CCCCCCC(=O)Nc1ccccc1)NO [Vorinostat] (partner 1 µM)
Procedure, shortened: as §1

Row | Cell Line | relative viability (Linifanib + Pictilisib; first compound 0.03162 µM) | relative viability (Linifanib + Pictilisib; first compound 0.1 µM) | relative viability (Linifanib + Pictilisib; first compound 0.3162 µM) | relative viability (Linifanib + Alpelisib; first compound 0.03162 µM) | relative viability (Linifanib + Alpelisib; first compound 0.1 µM) | relative viability (Linifanib + Alpelisib; first compound 0.3162 µM) | relative viability (Linifanib + Phenformin; first compound 0.03162 µM) | relative viability (Linifanib + Phenformin; first compound 0.1 µM) | relative viability (Linifanib + Phenformin; first compound 0.3162 µM) | relative viability (Linifanib + Lapatinib; first compound 0.03162 µM) | relative viability (Linifanib + Lapatinib; first compound 0.1 µM) | relative viability (Linifanib + Lapatinib; first compound 0.3162 µM) | relative viability (Linifanib + Palbociclib; first compound 0.03162 µM) | relative viability (Linifanib + Palbociclib; first compound 0.1 µM) | relative viability (Linifanib + Palbociclib; first compound 0.3162 µM) | relative viability (Linifanib + Vorinostat; first compound 0.03162 µM) | relative viability (Linifanib + Vorinostat; first compound 0.1 µM) | relative viability (Linifanib + Vorinostat; first compound 0.3162 µM)
1 | RERF-LC-KJ | 0.564 | 0.6 | 0.484 | 0.888 | 1.04 | 0.75 | 0.404 | 0.479 | 0.439 | 0.885 | 0.891 | 0.868 | 1.07 | 1.1 | 1.05 | 0.737 | 0.804 | 0.727
2 | HCC-78 | 0.24 | 0.21 | 0.237 | 0.339 | 0.357 | 0.363 | 0.675 | 0.761 | 0.686 | 1.23 | 0.976 | 0.674 | 0.513 | 0.433 | 0.447 | 0.419 | 0.427 | 0.455
3 | NCI-H1755 | 0.493 | 0.503 | 0.397 | 0.966 | 0.963 | 0.833 | 0.666 | 0.621 | 0.571 | 1.1 | 1.09 | 1.01 | 0.47 | 0.461 | 0.429 | 0.761 | 0.765 | 0.892
4 | HCC-366 | 0.148 | 0.21 | 0.214 | 0.533 | 0.664 | 0.357 | 0.575 | 0.62 | 0.635 | 1.02 | 1.12 | 0.895 | 0.398 | 0.427 | 0.373 | 0.371 | 0.378 | 0.359
5 | NCI-H2405 | 0.499 | 0.606 | 0.477 | 0.801 | 0.847 | 0.701 | 0.396 | 0.4 | 0.382 | 1.19 | 1.05 | 1.12 | 0.56 | 0.532 | 0.513 | 0.988 | 1.05 | 0.951
6 | COR-L 105 | 0.422 | 0.437 | 0.388 | 1 | 1.02 | 1.01 | 0.577 | 0.548 | 0.465 | 0.388 | 0.381 | 0.333 | 0.424 | 0.405 | 0.401 | 0.86 | 0.809 | 0.796
7 | NCI-H1395 | 0.676 | 0.715 | 0.525 | 1.2 | 1.02 | 1.08 | 0.444 | 0.454 | 0.414 | 0.986 | 0.982 | 1.14 | 0.656 | 0.673 | 0.691 | 0.824 | 0.71 | 0.633
8 | NCI-H1915 | 1.04 | 0.923 | 0.892 | 1.08 | 1.08 | 1.06 | 0.368 | 0.378 | 0.352 | 1.08 | 0.925 | 0.89 | 0.541 | 0.548 | 0.507 | 0.549 | 0.482 | 0.504
9 | ABC-1 | 0.759 | 0.953 | 0.742 | 0.928 | 1.05 | 0.927 | 0.271 | 0.234 | 0.24 | 1.15 | 1.13 | 0.93 | 0.754 | 0.797 | 0.787 | 1.19 | 1.31 | 0.906
